Results on one compound are retold here after ChEMBL document CHEMBL1148821, “4-anilino-5-carboxamido-2-pyridone derivatives as noncompetitive inhibitors of mitogen-activated protein kinase kinase” (J Med Chem, 2007).

A short description of data set [1]: Toxicity in colon 26 tumor-bearing CD2F1 mouse assessed as lethality at 100 mg/kg. The following applies: in vivo, read-out: Activity. On the set-up: dose 100 mg/kg. In kind it is organism-based.
Data set [2] can be described thus: Toxicity in colon 26 tumor-bearing CD2F1 mouse assessed as lethality at 200 mg/kg. In kind it is organism-based. Set-up: dose 200 mg/kg. The following applies: in vivo, read-out: Activity.

As to `Cn1cc(C(N)=O)c(Nc2ccc(I)cc2F)cc1=O`, the mortality in data set [1] was 40%; in data set [2], 100%.
